The supplement of paper PMC12463676, “Small-molecule dissolution of stress granules by redox modulation benefits ALS models” (Nature Chemical Biology, 2025)

Key:
lipoamide = compound: NC(=O)CCCCC1CCSS1 [lipoamide]; assay: thermal stability z-score vs DMSO; higher = more thermally stabilized by treatment; settings: HeLa, lipoamide concentration 100 µM
Method: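 Cellular thermal proteome profiling in HeLa cells. Cells were treated with 100 µM lipoamide for 1 h, with or without 1 mM arsenate for a further 1 h, then heated to ten temperatures (37-66.3 °C), and soluble protein was quantified by TMT mass spectrometry relative to 0.1% DMSO controls. The thermal stability score (sum of log2 fold changes minus the abundance score) was transformed to a z-score; mean of n = 3 experiments.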

potassium arsenate = compound: O=[As]([O-])(O)O.[K+] [potassium arsenate]; assay: as above; settings: HeLa; arsenate concentration 1 mM
Method: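 Cellular thermal proteome profiling in HeLa cells treated with 1 mM arsenate for 1 h (DMSO pretreatment), heated to ten temperatures (37-66.3 °C). Soluble protein was quantified by TMT mass spectrometry relative to DMSO controls; the thermal stability score was transformed to a z-score; mean of n = 3 experiments.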

[1] = arsenate co-treatment: 1 mM arsenate 1 h
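Further: each temperature applied for 3 min, abundance score taken as mean log2 fold change at the two lowest temperatures, z-score obtained by mean subtraction and division by SD.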

Chain of UniProt O75376 (O75376 whole entry): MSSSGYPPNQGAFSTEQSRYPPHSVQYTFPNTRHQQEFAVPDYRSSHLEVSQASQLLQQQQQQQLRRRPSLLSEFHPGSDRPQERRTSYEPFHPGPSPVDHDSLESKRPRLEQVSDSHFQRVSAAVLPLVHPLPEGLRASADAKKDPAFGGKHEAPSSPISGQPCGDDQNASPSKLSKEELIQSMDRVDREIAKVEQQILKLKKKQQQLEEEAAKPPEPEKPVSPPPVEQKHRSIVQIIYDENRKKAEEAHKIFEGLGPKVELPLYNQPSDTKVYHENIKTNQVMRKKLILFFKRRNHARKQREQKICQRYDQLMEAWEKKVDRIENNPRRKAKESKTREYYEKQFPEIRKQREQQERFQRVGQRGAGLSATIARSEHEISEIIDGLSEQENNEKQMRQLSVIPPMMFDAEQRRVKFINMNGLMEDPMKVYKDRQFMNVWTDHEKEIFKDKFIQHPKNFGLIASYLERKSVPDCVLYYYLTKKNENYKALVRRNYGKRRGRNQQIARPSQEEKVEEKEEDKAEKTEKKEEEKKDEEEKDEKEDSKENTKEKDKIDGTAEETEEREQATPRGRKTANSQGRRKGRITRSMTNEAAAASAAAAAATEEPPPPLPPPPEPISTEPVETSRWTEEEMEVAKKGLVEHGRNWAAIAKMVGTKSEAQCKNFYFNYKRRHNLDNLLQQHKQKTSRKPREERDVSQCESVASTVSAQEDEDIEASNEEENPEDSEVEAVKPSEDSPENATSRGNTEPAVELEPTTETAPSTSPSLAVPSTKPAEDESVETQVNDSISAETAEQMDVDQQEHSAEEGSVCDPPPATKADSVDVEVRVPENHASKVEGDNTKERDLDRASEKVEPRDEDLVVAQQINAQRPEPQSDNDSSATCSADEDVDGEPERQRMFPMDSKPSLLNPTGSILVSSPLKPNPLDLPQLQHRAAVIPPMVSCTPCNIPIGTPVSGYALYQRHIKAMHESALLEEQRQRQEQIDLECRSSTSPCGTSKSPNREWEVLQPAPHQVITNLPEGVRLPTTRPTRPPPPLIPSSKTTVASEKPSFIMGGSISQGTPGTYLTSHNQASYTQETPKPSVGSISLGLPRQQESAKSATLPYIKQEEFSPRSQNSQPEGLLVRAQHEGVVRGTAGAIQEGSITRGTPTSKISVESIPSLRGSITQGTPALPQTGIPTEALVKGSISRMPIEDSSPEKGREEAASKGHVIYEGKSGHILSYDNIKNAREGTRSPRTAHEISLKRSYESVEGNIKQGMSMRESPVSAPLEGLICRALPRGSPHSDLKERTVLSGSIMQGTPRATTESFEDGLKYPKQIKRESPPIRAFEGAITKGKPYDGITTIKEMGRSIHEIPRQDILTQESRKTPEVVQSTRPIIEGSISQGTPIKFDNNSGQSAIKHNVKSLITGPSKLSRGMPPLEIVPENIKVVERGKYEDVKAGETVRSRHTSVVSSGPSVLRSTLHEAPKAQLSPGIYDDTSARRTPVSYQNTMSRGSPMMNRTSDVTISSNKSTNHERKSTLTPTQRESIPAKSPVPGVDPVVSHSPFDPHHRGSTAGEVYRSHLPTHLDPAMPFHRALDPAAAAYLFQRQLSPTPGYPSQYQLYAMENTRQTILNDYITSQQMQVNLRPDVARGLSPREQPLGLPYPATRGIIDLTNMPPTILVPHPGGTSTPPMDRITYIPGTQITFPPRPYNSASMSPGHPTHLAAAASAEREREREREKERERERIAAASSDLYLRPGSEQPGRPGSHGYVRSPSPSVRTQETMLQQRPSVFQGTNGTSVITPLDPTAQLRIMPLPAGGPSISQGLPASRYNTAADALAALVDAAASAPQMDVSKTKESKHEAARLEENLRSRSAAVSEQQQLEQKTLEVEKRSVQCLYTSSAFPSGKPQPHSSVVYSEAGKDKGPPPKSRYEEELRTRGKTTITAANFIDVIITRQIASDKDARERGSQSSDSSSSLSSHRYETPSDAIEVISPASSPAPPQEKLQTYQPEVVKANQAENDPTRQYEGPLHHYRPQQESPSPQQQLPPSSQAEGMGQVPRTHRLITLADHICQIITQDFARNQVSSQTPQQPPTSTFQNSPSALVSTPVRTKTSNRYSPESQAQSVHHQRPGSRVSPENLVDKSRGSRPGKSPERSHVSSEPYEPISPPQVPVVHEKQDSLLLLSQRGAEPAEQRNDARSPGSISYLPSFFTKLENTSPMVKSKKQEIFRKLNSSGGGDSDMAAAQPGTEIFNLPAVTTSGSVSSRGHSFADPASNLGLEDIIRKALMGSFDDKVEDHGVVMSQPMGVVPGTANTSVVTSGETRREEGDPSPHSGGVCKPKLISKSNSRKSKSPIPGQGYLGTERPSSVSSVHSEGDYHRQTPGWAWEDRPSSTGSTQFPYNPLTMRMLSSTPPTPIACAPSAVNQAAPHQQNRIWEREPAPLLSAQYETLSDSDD
Chain of UniProt P61088 (P61088 whole entry): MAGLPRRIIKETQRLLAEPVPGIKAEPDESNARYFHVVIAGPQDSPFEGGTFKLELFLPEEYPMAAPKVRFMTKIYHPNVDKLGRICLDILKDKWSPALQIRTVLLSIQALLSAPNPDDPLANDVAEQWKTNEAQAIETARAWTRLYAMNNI
Chain of UniProt Q17RY6 (Q17RY6 whole entry): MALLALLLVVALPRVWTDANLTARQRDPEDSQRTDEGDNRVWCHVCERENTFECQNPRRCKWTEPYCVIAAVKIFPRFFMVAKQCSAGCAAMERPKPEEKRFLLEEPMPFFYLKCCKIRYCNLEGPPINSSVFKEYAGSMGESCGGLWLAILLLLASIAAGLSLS
Chain of UniProt Q5T2E6 (Q5T2E6 whole entry): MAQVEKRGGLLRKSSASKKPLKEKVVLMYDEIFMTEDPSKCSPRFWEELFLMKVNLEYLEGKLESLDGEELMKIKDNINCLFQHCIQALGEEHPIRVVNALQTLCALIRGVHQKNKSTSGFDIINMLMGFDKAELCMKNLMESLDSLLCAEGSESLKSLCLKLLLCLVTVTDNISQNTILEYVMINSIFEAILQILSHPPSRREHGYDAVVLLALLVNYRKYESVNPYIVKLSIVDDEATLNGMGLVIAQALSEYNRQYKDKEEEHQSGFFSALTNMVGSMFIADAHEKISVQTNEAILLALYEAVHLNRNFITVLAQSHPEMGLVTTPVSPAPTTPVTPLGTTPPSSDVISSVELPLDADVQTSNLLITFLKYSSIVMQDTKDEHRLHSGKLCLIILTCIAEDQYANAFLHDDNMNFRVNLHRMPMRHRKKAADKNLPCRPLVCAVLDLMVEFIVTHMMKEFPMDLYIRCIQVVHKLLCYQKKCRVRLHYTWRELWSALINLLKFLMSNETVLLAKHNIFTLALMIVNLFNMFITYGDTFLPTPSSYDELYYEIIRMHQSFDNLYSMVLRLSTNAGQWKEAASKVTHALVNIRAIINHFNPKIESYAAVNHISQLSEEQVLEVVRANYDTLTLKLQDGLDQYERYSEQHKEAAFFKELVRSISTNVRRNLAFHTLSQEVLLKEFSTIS
Chain of UniProt Q9H0H5 (Q9H0H5 whole entry): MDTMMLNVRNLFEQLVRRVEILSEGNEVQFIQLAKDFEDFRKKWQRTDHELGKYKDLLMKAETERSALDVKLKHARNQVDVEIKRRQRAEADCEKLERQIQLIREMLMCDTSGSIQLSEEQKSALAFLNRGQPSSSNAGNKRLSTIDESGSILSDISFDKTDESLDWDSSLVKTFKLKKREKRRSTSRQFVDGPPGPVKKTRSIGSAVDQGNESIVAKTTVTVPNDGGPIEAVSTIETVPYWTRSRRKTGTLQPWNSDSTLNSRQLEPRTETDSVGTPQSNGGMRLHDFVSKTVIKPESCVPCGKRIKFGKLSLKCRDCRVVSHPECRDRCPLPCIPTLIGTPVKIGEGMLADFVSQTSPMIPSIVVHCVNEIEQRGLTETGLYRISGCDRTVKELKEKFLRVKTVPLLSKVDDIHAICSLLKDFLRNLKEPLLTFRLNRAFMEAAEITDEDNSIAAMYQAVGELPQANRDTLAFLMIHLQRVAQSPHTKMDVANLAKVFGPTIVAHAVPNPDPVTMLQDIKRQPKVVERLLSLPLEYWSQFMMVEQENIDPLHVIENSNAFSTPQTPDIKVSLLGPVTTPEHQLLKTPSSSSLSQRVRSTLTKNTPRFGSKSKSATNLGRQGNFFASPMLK
Chain of UniProt Q0PNE2 (Q0PNE2 whole entry): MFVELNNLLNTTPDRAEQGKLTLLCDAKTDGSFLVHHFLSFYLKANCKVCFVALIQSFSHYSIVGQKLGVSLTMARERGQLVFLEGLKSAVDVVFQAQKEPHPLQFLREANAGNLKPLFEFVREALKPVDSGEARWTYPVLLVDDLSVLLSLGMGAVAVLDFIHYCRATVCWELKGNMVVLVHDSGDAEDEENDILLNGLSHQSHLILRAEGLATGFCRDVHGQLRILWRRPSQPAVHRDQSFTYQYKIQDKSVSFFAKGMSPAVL
Chain of UniProt O14657 (O14657 whole entry): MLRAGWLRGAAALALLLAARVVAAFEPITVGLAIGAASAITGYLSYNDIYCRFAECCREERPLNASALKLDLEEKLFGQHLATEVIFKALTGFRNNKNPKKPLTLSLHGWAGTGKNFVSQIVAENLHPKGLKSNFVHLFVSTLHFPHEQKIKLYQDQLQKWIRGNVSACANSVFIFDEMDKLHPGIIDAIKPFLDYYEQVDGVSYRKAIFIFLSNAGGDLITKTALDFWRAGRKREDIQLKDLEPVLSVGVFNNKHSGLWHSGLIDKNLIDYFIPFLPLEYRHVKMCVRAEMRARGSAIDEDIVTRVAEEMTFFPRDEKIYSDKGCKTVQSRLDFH
Chain of UniProt Q9Y5K8 (Q9Y5K8 whole entry): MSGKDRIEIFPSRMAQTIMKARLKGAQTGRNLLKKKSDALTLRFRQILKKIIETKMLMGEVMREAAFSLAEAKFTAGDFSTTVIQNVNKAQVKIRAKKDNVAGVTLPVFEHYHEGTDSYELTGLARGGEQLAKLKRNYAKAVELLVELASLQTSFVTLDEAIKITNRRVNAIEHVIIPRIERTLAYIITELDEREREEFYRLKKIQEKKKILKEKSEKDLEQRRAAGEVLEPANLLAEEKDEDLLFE

Target	thermal stability z-score (lipoamide; [1])	thermal stability z-score (lipoamide; arsenate co-treatment: none)	thermal stability z-score (potassium arsenate)
PUS1 (UniProt Q9Y606)	-0.761	-0.18	0.257
ATXN3 (UniProt P54252)	0.199	0.278	-0.115
SNRPD3 (UniProt P62318)	0.93	0.207	0.399
PDE12 (UniProt Q6L8Q7)	0.274	0.272	-0.746
POLR2I (UniProt P36954)	1.79	0.367	-2.41
MYH14 (UniProt Q7Z406)	0.363	0.126	0.458
SLC30A9 (UniProt Q6PML9)	1.14	1.13	1.17
NFKBIB (UniProt Q15653)	-0.344	-0.271	0.948
CD58 (UniProt P19256)	0.0858	0.705	0.484
LY6K (UniProt Q17RY6)	-3.06	-2.7	2.42
NDUFV2 (UniProt P19404)	0.418	-0.0827	0.966
GAB1 (UniProt Q13480)	-0.149	0.0158	-0.0474
SETX (UniProt Q7Z333)	-0.122	-0.0676	-0.00223
ATP6V1D (UniProt Q9Y5K8)	0.546	0.0685	-0.425
RNF169 (UniProt Q8NCN4)	-0.0589	0.0354	-0.0867
RPL38 (UniProt P63173)	0.982	0.439	-0.704
NUP62 (UniProt P37198)	-0.129	-0.358	0.329
IFT140 (UniProt Q96RY7)	-0.182	-0.038	0.083
DDX39A (UniProt O00148)	-0.214	0.12	0.441
EPHA5 (UniProt P54756)	0.8	0.338	0.746
C10ORF76 (UniProt Q5T2E6)	-0.9	0.306	0.613
A0A087WV05|MYCBP	1.93	1.66	0.26
WDR26 (UniProt Q9H7D7)	-0.326	-0.319	-0.602
ZMAT2 (UniProt Q96NC0)	-0.00196	-0.398	-1.13

Target	thermal stability z-score (lipoamide; [1])	thermal stability z-score (lipoamide; arsenate co-treatment: none)	thermal stability z-score (potassium arsenate)
TEFM (UniProt Q96QE5)	0.0966	0.0631	0.106
PAN3 (UniProt Q58A45)	-0.038	0.0344	-0.257
PNP (UniProt P00491)	0.446	0.411	0.178
PLXNA2 (UniProt O75051)	0.937	1.3	-0.219
AUP1 (UniProt Q9Y679)	-0.649	-1.09	-0.628
LAMTOR5 (UniProt O43504)	-0.306	-0.405	0.0111
NCOR1 (UniProt O75376)	-0.0471	-0.0243	-0.0899
TOR1B (UniProt O14657)	-2.23	-2.79	1.11
RACGAP1 (UniProt Q9H0H5)	-0.198	-0.0575	-0.148
NDC80 (UniProt O14777)	-0.361	0.254	1.71
FAM105A (UniProt Q9NUU6)	-0.00141	-0.0135	0.337
EEFSEC (UniProt P57772)	-0.771	0.715	-0.884
UBE2N (UniProt P61088)	-0.524	-0.293	-0.899
PPAN (UniProt Q9NQ55)	0.703	-0.582	-0.33
SLC30A5 (UniProt Q8TAD4)	-0.202	-0.453	-0.849
SRP68 (UniProt Q9UHB9)	-0.606	-0.27	0.344
TMEM38B (UniProt Q9NVV0)	0.603	-0.085	0.654
GGPS1 (UniProt O95749)	0.498	0.521	-0.212
LPP (UniProt Q93052)	-0.407	-0.444	-5.37
ARHGAP12 (UniProt Q8IWW6)	-0.578	-0.344	0.668
SPATA5 (UniProt Q8NB90)	0.389	0.148	-0.0295
UCK2 (UniProt Q9BZX2)	-0.0152	0.141	0.093
C3ORF58 (UniProt Q8NDZ4)	-0.093	-0.000578	0.287
RAD18 (UniProt Q9NS91)	-0.082	-0.0293	-0.0799

Target	thermal stability z-score (lipoamide; [1])	thermal stability z-score (lipoamide; arsenate co-treatment: none)	thermal stability z-score (potassium arsenate)
IMPDH2 (UniProt P12268)	-0.759	-0.205	1.25
EFL1 (UniProt Q7Z2Z2)	-0.245	0.0406	0.402
EIF3I (UniProt Q13347)	0.544	0.0305	-0.363
DAXX (UniProt Q9UER7)	-0.0224	-0.149	-0.391
TPRKB (UniProt Q9Y3C4)	-0.134	-0.764	-0.881
BEGAIN (UniProt Q9BUH8)	-0.0429	-0.117	0.144
ELP6 (UniProt Q0PNE2)	0.56	-0.141	0.998
DDB2 (UniProt Q92466)	-0.684	-1.2	0.0883
SBNO1 (UniProt A3KN83)	0.158	0.686	0.146
GATAD2B (UniProt Q8WXI9)	0.511	0.315	-0.539
FAM8A1 (UniProt Q9UBU6)	-0.425	-0.579	-0.315
EPS15L1 (UniProt Q9UBC2)	0.0401	0.0523	0.4
PPP1CC (UniProt P36873)	0.0493	-0.463	-0.446
TJP1 (UniProt Q07157)	0.078	-0.0866	0.371
PPP2R1A (UniProt P30153)	0.108	0.121	-1.48
ICAM1 (UniProt P05362)	0.33	-0.273	-0.49
FAM49B (UniProt Q9NUQ9)	0.4	0.0941	0.0541
TMED5 (UniProt Q9Y3A6)	-1.78	-1.51	0.321
SPATA5L1 (UniProt Q9BVQ7)	0.441	0.172	0.487
SPR (UniProt P35270)	1.28	0.634	1.36
HMCES (UniProt Q96FZ2)	0.164	0.254	-0.565
CCT6A (UniProt P40227)	0.06	-0.18	-0.174
CD46 (UniProt P15529)	-0.681	-0.571	-0.443
